Measured values: ChEMBL document CHEMBL1130545, “Synthesis and antimicrobial activities of 3-N-substituted-4,5-bis(3-indolyl)oxazol-2-ones” (1997)

Columns and labels:
Type in all cases: functional
Bacillus cereus = assay: The compound was tested in vitro for antimicrobial activity against gram-positive bacteria Bacillus cereus (ATCC 14579) by conventional paper disk; 7-8
Streptomyces chartreusis [1] = assay: The compound was tested in vitro for antimicrobial activity against […] bacteria Streptomyces chartreusis (NRRL 11407) by conventional paper disk; 9-10
Prescottella equi [2] = assay: The compound was tested in vitro for antimicrobial activity against gram-positive bacteria Corynebacterium equi (IFO 3720) by conventional paper disk; 7-8
Streptomyces chartreusis [3] = assay: The compound was tested in vitro for antimicrobial activity against […] bacteria Streptomyces chartreusis (NRRL 11407) by conventional paper disk; 7-8
Enterococcus faecalis = assay: The compound was tested in vitro for antimicrobial activity against gram-positive bacteria Enterococcus faecalis (ATCC 11700) by conventional paper disk; 7-8
Prescottella equi [4] = assay: The compound was tested in vitro for antimicrobial activity against gram-positive bacteria Corynebacterium equi (IFO 3720) by conventional paper disk; 9-10

| SMILES | Inhibition zone (Bacillus cereus) [mm] | Inhibition zone (Streptomyces chartreusis [1]) [mm] | Inhibition zone (Prescottella equi [2]) [mm] | Inhibition zone (Streptomyces chartreusis [3]) [mm] | Inhibition zone (Enterococcus faecalis) [mm] | Inhibition zone (Prescottella equi [4]) [mm] |
| --- | --- | --- | --- | --- | --- | --- |
| CCCn1c(-c2c[nH]c3ccccc23)c(-c2c[nH]c3ccccc23)oc1=O | 7 | 9 | 7 |  |  |  |
| O=c1oc(-c2c[nH]c3ccccc23)c(-c2c[nH]c3ccccc23)n1Cc1ccccc1 | 7 |  | 7 | 7 |  |  |
| C[C@H](C(=O)O)n1c(-c2c[nH]c3ccccc23)c(-c2c[nH]c3ccccc23)oc1=O | 7 | 9 | 7 |  | 7 |  |
| C=CCn1c(-c2c[nH]c3ccccc23)c(-c2c[nH]c3ccccc23)oc1=O | 7 | 9 |  |  |  | 9 |
